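Where inhibition never reached the appropriate level, the endpoint shown equals the highest concentration tested. Otherwise, values were interpolated linearly from a five-concentration, 48-hour dose response in 96-well plates. GI50 = concentration required for 50% inhibition of growth.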 Activity calls are given as the source filed them. Rule as the data show it: active = GI50 up to about 1.1 µM and inactive = higher.
Assays:
Experiment in all cases: NCI anticancer screen, dose series, 48 h
SR = system: SR
BT-549 = system: BT-549
MDA-MB-231 = system: MDA-MB-231
MCF7 = system: MCF7
HCC 2998 = system: HCC 2998
UACC-257 = system: UACC-257
UO-31 = system: UO-31
TK-10 = system: TK-10
OVCAR-5 = system: OVCAR-5
DU-145 = system: DU-145
CCRF-CEM = system: CCRF-CEM
HCT-15 = system: HCT-15
HOP-92 = system: HOP-92
HL-60 = system: HL-60
CAKI-1 = system: CAKI-1
A549 = system: A549
RXF 393 = system: RXF 393
Malme-3M = system: Malme-3M
NCI-H226 = system: NCI-H226

Structure (SMILES)	GI50 (SR)	GI50 (BT-549)	GI50 (MDA-MB-231)	GI50 (MCF7)	GI50 (HCC 2998)	GI50 (UACC-257)	GI50 (UO-31)	GI50 (TK-10)	GI50 (OVCAR-5)	GI50 (DU-145)	GI50 (CCRF-CEM)	GI50 (HCT-15)	GI50 (HOP-92)	GI50 (HL-60)	GI50 (CAKI-1)	GI50 (A549)	GI50 (RXF 393)	GI50 (Malme-3M)	GI50 (NCI-H226)
COc1cc(-c2c[nH]c3ccccc23)nc(-c2c[nH]c3ccccc23)n1	9.53 µM (inactive)	15.9 µM (inactive)	2.49 µM (inactive)	3.56 µM (inactive)	4.22 µM (inactive)	8.91 µM (inactive)	5.53 µM (inactive)	7.98 µM (inactive)	8.13 µM (inactive)	11.3 µM (inactive)	1.13 µM (inactive)	5.61 µM	2.34 µM (inactive)	3.43 µM (inactive)	5.89 µM (inactive)	3.27 µM (inactive)	–	–	–
CCOC(=O)/C=C/[C@H](O[Si](CC)(CC)CC)C(C)(C)C	22.7 µM (inactive)	> 100 µM (inactive)	80.4 µM (inactive)	25.8 µM (inactive)	57.3 µM (inactive)	31 µM (inactive)	> 100 µM (inactive)	> 100 µM (inactive)	89.9 µM (inactive)	> 100 µM (inactive)	22.4 µM (inactive)	41.5 µM	> 100 µM (inactive)	–	> 100 µM (inactive)	35 µM (inactive)	47.1 µM (inactive)	> 100 µM (inactive)	> 100 µM (inactive)
NCCNC(=O)CN(CC(=O)O)C1CCCCC1N(CC(=O)O)CC(=O)O (configuration not stated)	> 100 µM (inactive)	> 100 µM (inactive)	> 100 µM (inactive)	> 100 µM (inactive)	> 100 µM (inactive)	> 100 µM (inactive)	> 100 µM (inactive)	> 100 µM (inactive)	> 100 µM (inactive)	> 100 µM (inactive)	> 100 µM (inactive)	> 100 µM	11.7 µM (inactive)	> 100 µM (inactive)	> 100 µM (inactive)	> 100 µM (inactive)	–	> 100 µM (inactive)	> 100 µM (inactive)
Cc1ccc(S(=O)(=O)N2CCC(=O)c3cc(Br)ccc32)cc1	3.96 µM (inactive)	13.9 µM (inactive)	6.44 µM (inactive)	4.45 µM (inactive)	24 µM (inactive)	6.95 µM (inactive)	10.9 µM (inactive)	10.7 µM (inactive)	42.4 µM (inactive)	8.67 µM (inactive)	–	4.88 µM	18.6 µM (inactive)	–	11.8 µM (inactive)	13.6 µM (inactive)	12.5 µM (inactive)	22 µM (inactive)	37.7 µM (inactive)
COCN1C(=O)[C@@H]2CCCN2C(=O)c2cc(Cl)ccc21	> 100 µM (inactive)	> 100 µM (inactive)	> 100 µM (inactive)	> 100 µM (inactive)	> 100 µM (inactive)	> 100 µM (inactive)	> 100 µM (inactive)	> 100 µM (inactive)	> 100 µM (inactive)	> 100 µM (inactive)	–	> 100 µM	> 100 µM (inactive)	–	> 100 µM (inactive)	> 100 µM (inactive)	> 100 µM (inactive)	> 100 µM (inactive)	–
CCCCCCCC(CC(=O)O)OC(=O)CC(CCCCCCC)OC1OC(C)C(O)C(O)C1OC1OC(C)C(O)C(O)C1O (configuration not stated)	> 100 µM (inactive)	> 100 µM (inactive)	> 100 µM (inactive)	> 100 µM (inactive)	> 100 µM (inactive)	> 100 µM (inactive)	> 100 µM (inactive)	–	> 100 µM (inactive)	> 100 µM (inactive)	79.4 µM (inactive)	> 100 µM	> 100 µM (inactive)	–	> 100 µM (inactive)	> 100 µM (inactive)	–	43.2 µM (inactive)	> 100 µM (inactive)
COc1ccc(CN(CCc2c[nH]c3ccccc23)Cc2ccc(OC)cc2)cc1	7.57 µM (inactive)	5.71 µM (inactive)	8.65 µM (inactive)	3.47 µM (inactive)	3.34 µM (inactive)	3.8 µM (inactive)	1.47 µM (inactive)	1.29 µM (inactive)	3.64 µM (inactive)	4.65 µM (inactive)	6.67 µM (inactive)	3.44 µM	3.29 µM (inactive)	–	3.94 µM (inactive)	3.63 µM (inactive)	4.69 µM (inactive)	3.04 µM (inactive)	1.37 µM (inactive)
COC(=O)c1c2c(cc3c1CC1(Cc4cc5c(cc4C1=O)CCC5)C3)CCC2 (configuration not stated)	> 10 µM (inactive)	64.6 µM (inactive)	> 100 µM (inactive)	24.7 µM (inactive)	63 µM (inactive)	17.5 µM (inactive)	> 100 µM (inactive)	22.8 µM (inactive)	> 100 µM (inactive)	> 100 µM (inactive)	11 µM (inactive)	42.7 µM	–	> 100 µM (inactive)	21 µM (inactive)	56.6 µM (inactive)	–	32.9 µM (inactive)	60.3 µM (inactive)
COc1cc2oc(=O)ccc2cc1C(=O)CC(C)C	62.4 µM (inactive)	71.4 µM (inactive)	> 100 µM (inactive)	73.8 µM (inactive)	> 100 µM (inactive)	> 100 µM (inactive)	> 100 µM (inactive)	> 100 µM (inactive)	> 100 µM (inactive)	> 100 µM (inactive)	> 100 µM (inactive)	> 100 µM	> 100 µM (inactive)	39.2 µM (inactive)	22.9 µM (inactive)	> 100 µM (inactive)	–	–	28.6 µM (inactive)
COc1ccc(N2C(=O)/C(=C/c3ccc(N(CCC#N)CCC#N)cc3)N=C2c2ccccc2)cc1	> 100 µM (inactive)	> 100 µM (inactive)	> 100 µM (inactive)	> 100 µM (inactive)	–	> 100 µM (inactive)	> 100 µM (inactive)	> 100 µM (inactive)	> 100 µM (inactive)	> 100 µM (inactive)	–	> 100 µM	> 100 µM (inactive)	> 100 µM (inactive)	6.19 µM (inactive)	> 100 µM (inactive)	> 100 µM (inactive)	> 100 µM (inactive)	> 100 µM (inactive)
CN1C(=O)C23CCCC2CC1(c1ccccc1)S3 (configuration not stated)	> 100 µM (inactive)	95.5 µM (inactive)	90.4 µM (inactive)	> 100 µM (inactive)	–	23 µM (inactive)	> 100 µM (inactive)	> 100 µM (inactive)	> 100 µM (inactive)	> 100 µM (inactive)	–	> 100 µM	41 µM (inactive)	60.7 µM (inactive)	> 100 µM (inactive)	> 100 µM (inactive)	> 100 µM (inactive)	> 100 µM (inactive)	> 100 µM (inactive)
CC(NC(NC(C)C12CC3CC(CC(C3)C1)C2)=C(C(Cl)=C(Cl)Cl)[N+](=O)[O-])C12CC3CC(CC(C3)C1)C2 (configuration not stated)	3.9 µM (inactive)	24 µM (inactive)	4.5 µM (inactive)	8.36 µM (inactive)	23.4 µM (inactive)	14.5 µM (inactive)	31.9 µM (inactive)	33.3 µM (inactive)	32.1 µM (inactive)	45 µM (inactive)	0.923 µM (active)	18.7 µM	3.58 µM (inactive)	–	16.9 µM (inactive)	6.31 µM (inactive)	13 µM (inactive)	26.7 µM (inactive)	> 26.2 µM (inactive)
CC(C)(C)OC(=O)NC(Cc1ccccc1)OCc1ccccc1 (configuration not stated)	30.7 µM (inactive)	23.3 µM (inactive)	15.3 µM (inactive)	19.7 µM (inactive)	23.9 µM (inactive)	> 10 µM (inactive)	17.1 µM (inactive)	19 µM (inactive)	24 µM (inactive)	20.1 µM (inactive)	–	19.4 µM	–	–	19.6 µM (inactive)	17.6 µM (inactive)	20.8 µM (inactive)	23.6 µM (inactive)	18.7 µM (inactive)
CCNc1nc2c(ncn2C2CC(O)C(COP(=O)(O)O)O2)c(=O)[nH]1 (configuration not stated)	86.3 µM (inactive)	> 100 µM (inactive)	> 100 µM (inactive)	> 100 µM (inactive)	> 100 µM (inactive)	> 100 µM (inactive)	–	> 100 µM (inactive)	> 100 µM (inactive)	> 100 µM (inactive)	–	> 100 µM	> 100 µM (inactive)	> 100 µM (inactive)	> 100 µM (inactive)	> 100 µM (inactive)	–	> 100 µM (inactive)	> 100 µM (inactive)
COC(=O)C1(Cc2ccc3c(c2)CCC3)Cc2ccccc2C1	29.6 µM (inactive)	69.5 µM (inactive)	35.1 µM (inactive)	32.8 µM (inactive)	32 µM (inactive)	26.4 µM (inactive)	33.7 µM (inactive)	82.8 µM (inactive)	39.3 µM (inactive)	39.4 µM (inactive)	11.5 µM (inactive)	25.8 µM	–	17 µM (inactive)	36.2 µM (inactive)	32.5 µM (inactive)	–	27.4 µM (inactive)	29.9 µM (inactive)
S=C(S)NCCCn1ccnc1	> 100 µM (inactive)	> 100 µM (inactive)	> 100 µM (inactive)	> 100 µM (inactive)	–	> 100 µM (inactive)	> 100 µM (inactive)	> 100 µM (inactive)	> 100 µM (inactive)	> 100 µM (inactive)	–	> 100 µM	> 100 µM (inactive)	> 100 µM (inactive)	> 100 µM (inactive)	> 100 µM (inactive)	–	> 100 µM (inactive)	> 100 µM (inactive)
COc1cc(O)ccc1C(=S)SC	43.2 µM (inactive)	> 100 µM (inactive)	16.2 µM (inactive)	> 100 µM (inactive)	–	51.5 µM (inactive)	51.6 µM (inactive)	60.4 µM (inactive)	> 100 µM (inactive)	> 100 µM (inactive)	–	40.8 µM	34.2 µM (inactive)	23.6 µM (inactive)	56.8 µM (inactive)	38.8 µM (inactive)	89.3 µM (inactive)	39.2 µM (inactive)	16 µM (inactive)
